For three compounds, GI50 results are on record in US20240174611A1 (Rappta Therapeutics Oy, priority 2021, published 2024).

Structures are written as SMILES.

The assay relates to HCC1937 cells. The assay is described as follows: HCC1937 cell viability assay (MTS). To be noted: Homo sapiens, HCC1937 cell line (footnote a), 48 hours treatment. The assay is classed as cell-based. How it is done: HCC1937 cell line HCC1937 cells are plated in a 96 well plate format at a density of 10,000 cells per well. After incubation overnight, cells are treated with compounds 1-100 at following concentrations: 80, 40, 20, 10, 5, 2.5, 1.25 μM. Compound concentrations are prepared in RPMI via serial dilutions from a starting stock of 80 mM. 48 hours after compound treatment, cell viability is assessed using the Promega CellTiter 96 aqueous one proliferation assay (Promega G3582, MTS assay) according to manufacturer's protocol.
The cell viability data was analyzed with GraphPad Prism software. The values were log transformed and analyzed with non-linear regression (curve-fit) using log(inhibitor) vs. response—variable slope (four parameters) and constraining the bottom to equal zero. Unless otherwise indicated, the GI50 values provided in Table 35 correspond to the LNCaP cell viability assays.
By GI50 is commonly meant the concentration that inhibits growth by half. A low value points to greater sensitivity of the cells. As to `O=S(=O)(NC1(c2ccc(F)cn2)CCNCC1)c1ccc(OC(F)(F)F)cc1` [Compound 65, N-(4-(5-fluoropyridin-2-yl)piperidin-4-yl)-4-(trifluoromethoxy)benzenesulfonamide], growth was halved (GI50) at 75.1 µM.

With `CC(C)CCN1CCC(NS(=O)(=O)c2ccc(OC(F)(F)F)cc2)(c2ccc(Cl)cc2)C1` (stereo not drawn) [Compound 76, N-(3-(4-chlorophenyl)-1-isopentylpyrrolidin-3-yl)-4-(trifluoromethoxy)benzenesulfonamide], the GI50 worked out at 19.9 µM.

Take `Nc1cc(S(=O)(=O)NC2(c3ccc(F)cc3)CCNC2)ccc1OC(F)(F)F` (stereo not drawn) [Compound 92, 3-amino-N-(3-(4-fluorophenyl)pyrrolidin-3-yl)-4-(trifluoromethoxy)benzenesulfonamide]: the concentration for 50% growth inhibition (GI50) is 50.3 µM.
